According to paper PMC8245078, “Development of novel benzofuran-isatin conjugates as potential antiproliferative agents with apoptosis inducing mechanism in Colon cancer” (Journal of Enzyme Inhibition and Medicinal Chemistry, 2021):
Where two headings read alike, the source gives them in different places.

Assays:
Assay in all cases: NCI single dose screening (10 µM)
Type in all cases: cell-based
[1] = test system: SW-620; conditions: Homo sapiens; SW-620, Colon cancer, single dose 10^−5 M; read-out: GI% (cell growth inhibition percentage)
[2] = test system: RXF 393; conditions: Homo sapiens; RXF 393, Renal cancer, single dose 10^−5 M; read-out: GI% (cell growth inhibition percentage)
[3] = test system: UO-31; conditions: Homo sapiens; UO-31, Renal cancer, single dose 10^−5 M; read-out: GI% (cell growth inhibition percentage)
[4] = test system: T-47D; conditions: Homo sapiens, T47D; T-47D, Breast cancer, single dose 10^−5 M; read-out: GI% (cell growth inhibition percentage)
[5] = test system: LOX IMVI; conditions: Homo sapiens, Melanoma, single dose 10^−5 M, read-out: GI% (cell growth inhibition percentage)
[6] = test system: ACHN; conditions: Homo sapiens, Renal cancer, single dose 10^−5 M, read-out: GI% (cell growth inhibition percentage)
[7] = test system: NCI-H23; conditions: Homo sapiens; NCI-H23, Non-small cell lung cancer, single dose 10^−5 M; read-out: GI% (cell growth inhibition percentage)
[8] = test system: SN12C; conditions: Homo sapiens, Renal cancer, single dose 10^−5 M, read-out: GI% (cell growth inhibition percentage)
[9] = test system: TK-10; conditions: Homo sapiens; TK-10, Renal cancer, single dose 10^−5 M; read-out: GI% (cell growth inhibition percentage)
[10] = test system: MCF7; conditions: Homo sapiens; MCF7, Breast cancer, single dose 10^−5 M; read-out: GI% (cell growth inhibition percentage)
[11] = test system: COLO 205; conditions: Homo sapiens; COLO 205, Colon cancer, single dose 10^−5 M; read-out: GI% (cell growth inhibition percentage)
[12] = test system: SF-539; conditions: Homo sapiens; SF-539, CNS cancer, single dose 10^−5 M; read-out: GI% (cell growth inhibition percentage)
[13] = test system: OVCAR-5; conditions: Homo sapiens; OVCAR-5, Ovarian cancer, single dose 10^−5 M; read-out: GI% (cell growth inhibition percentage)
[14] = test system: MDA-MB-435; conditions: Homo sapiens; MDA-MB-435, Melanoma, single dose 10^−5 M; read-out: GI% (cell growth inhibition percentage)
[15] = test system: HCT-116; conditions: Homo sapiens; HCT-116, Colon cancer, single dose 10^−5 M; read-out: GI% (cell growth inhibition percentage)
[16] = test system: MDA-MB-231/ATCC; conditions: Homo sapiens; MDA-MB-231/ATCC, Breast cancer, single dose 10^−5 M; read-out: GI% (cell growth inhibition percentage)
[17] = test system: SF-295; conditions: Homo sapiens; SF-295, CNS cancer, single dose 10^−5 M; read-out: GI% (cell growth inhibition percentage)
[18] = test system: HL-60(TB); conditions: Homo sapiens
[19] = test system: OVCAR-3; conditions: Homo sapiens; OVCAR-3, Ovarian cancer, single dose 10^−5 M; read-out: GI% (cell growth inhibition percentage)
[20] = test system: CAKI-1; conditions: Homo sapiens; CAKI-1, Renal cancer, single dose 10^−5 M; read-out: GI% (cell growth inhibition percentage)
[21] = test system: A549/ATCC; conditions: Homo sapiens; A549/ATCC, Non-small cell lung cancer, single dose 10^−5 M; read-out: GI% (cell growth inhibition percentage)
[22] = test system: K-562; conditions: Homo sapiens, K562; K-562, Leukaemia, single dose 10^−5 M; read-out: GI% (cell growth inhibition percentage)
[23] = HL-60(TB), Leukaemia, single dose 10^−5 M, read-out: GI% (cell growth inhibition percentage)

Work on `Cc1c(C(=O)N/N=C2\C(=O)Nc3ccc(F)cc32)oc2ccccc12` [Compound 5b] yielded an inhibition at 10 µM [1] of under 10%, an inhibition at 10 µM [2] of under 10% and an inhibition at 10 µM [3] of 26.7%. The inhibition at 10 µM [4] was under 10%, the inhibition at 10 µM [5] was under 10% and the inhibition at 10 µM [6] was under 10%. The inhibition at 10 µM [7] was under 10%, the inhibition at 10 µM [8] was under 10% and the inhibition at 10 µM [9] was under 10%. The inhibition at 10 µM [10] was 19%, the inhibition at 10 µM [11] was under 10% and the inhibition at 10 µM [12] was under 10%. The inhibition at 10 µM [13] was under 10%, the inhibition at 10 µM [14] was under 10% and the inhibition at 10 µM [15] was under 10%. It also gave an inhibition at 10 µM [16] of 14.6%, an inhibition at 10 µM [17] of under 10% and an inhibition at 10 µM [18, 23] of under 10%. For the same molecule, the inhibition at 10 µM [19] was under 10%, the inhibition at 10 µM [20] was 19.5% and the inhibition at 10 µM [21] was under 10%. The inhibition at 10 µM [22] was under 10%.

`Cc1c(C(=O)N/N=C2\C(=O)Nc3ccc(Br)cc32)oc2ccccc12` [Compound 5c] was tested, and the inhibition at 10 µM [1] was 10.6%, the inhibition at 10 µM [2] was 11.1% and the inhibition at 10 µM [3] was 43.4%. The inhibition at 10 µM [4] was 42.7%, the inhibition at 10 µM [5] was 33.8% and the inhibition at 10 µM [6] was 35.5%. It also gave an inhibition at 10 µM [7] of 33%, an inhibition at 10 µM [8] of 29.8% and an inhibition at 10 µM [9] of under 10%. For the same molecule, the inhibition at 10 µM [10] was 26.7%, the inhibition at 10 µM [11] was under 10% and the inhibition at 10 µM [12] was 57.9%. It also gave an inhibition at 10 µM [13] of under 10%, an inhibition at 10 µM [14] of under 10% and an inhibition at 10 µM [15] of 32%. For the same molecule, the inhibition at 10 µM [16] was 29.9%, the inhibition at 10 µM [17] was 20.3% and the inhibition at 10 µM [18, 23] was 21.5%. For the same molecule, the inhibition at 10 µM [19] was under 10%, the inhibition at 10 µM [20] was 26.6% and the inhibition at 10 µM [21] was 27.9%. The inhibition at 10 µM [22] was 18%.

With `COc1ccc2c(c1)/C(=N/NC(=O)c1oc3ccccc3c1C)C(=O)N2` [Compound 5d] the inhibition at 10 µM [1] was 64.8%, the inhibition at 10 µM [2] was 136% and the inhibition at 10 µM [3] was 155%. It also gave an inhibition at 10 µM [4] of 139%, an inhibition at 10 µM [5] of 83.7% and an inhibition at 10 µM [6] of 151%. It also gave an inhibition at 10 µM [7] of 89.3%, an inhibition at 10 µM [8] of 65.1% and an inhibition at 10 µM [9] of 194%. The inhibition at 10 µM [10] was 77.1%, the inhibition at 10 µM [11] was 77.2% and the inhibition at 10 µM [12] was 62.6%. The inhibition at 10 µM [13] was 52.3%, the inhibition at 10 µM [14] was 61% and the inhibition at 10 µM [15] was 129%. For the same molecule, the inhibition at 10 µM [16] was 76.2%, the inhibition at 10 µM [17] was 95% and the inhibition at 10 µM ([18]; HL-60, read-out: GI% (cell growth inhibition percentage)) was 46.1%. It also gave an inhibition at 10 µM [19] of 166%, an inhibition at 10 µM [20] of 152% and an inhibition at 10 µM [21] of 124%. The inhibition at 10 µM [22] was 57.5%.
